The IC50 is the midpoint of a concentration-inhibition curve.

Results on twelve molecules are retold here after US20230278996A1, “YKL-40 INHIBITORS AND THEIR THERAPEUTIC APPLICATIONS” (Molecure S.A., priority 2022, published 2023).

The target in the test is YKL-40 (Homo sapiens (Human), UniProt P36222). The experiment in a line: YKL-40:4 assay, competitive chitin binding site AlphaScreen. Conditions: competition with biotinylated compound 4 (20 nM), YKL-40-histag 2.5 nM. On the technique in general: In Alpha technology, singlet oxygen from a donor bead excites a nearby acceptor bead.
Sequence of YKL-40 (P36222 22-383): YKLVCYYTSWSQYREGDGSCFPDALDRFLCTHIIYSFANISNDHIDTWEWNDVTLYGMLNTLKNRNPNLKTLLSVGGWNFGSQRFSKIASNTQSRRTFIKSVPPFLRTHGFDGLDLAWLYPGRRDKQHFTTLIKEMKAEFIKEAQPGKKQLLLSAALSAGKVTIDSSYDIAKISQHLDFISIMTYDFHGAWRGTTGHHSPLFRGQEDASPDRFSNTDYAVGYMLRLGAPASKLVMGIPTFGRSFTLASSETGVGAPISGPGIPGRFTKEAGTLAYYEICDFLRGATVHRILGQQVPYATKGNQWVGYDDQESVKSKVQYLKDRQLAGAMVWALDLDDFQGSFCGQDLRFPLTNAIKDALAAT

Each structure is given as a SMILES string.

`CN1CCN(C[C@H]2CN(C3CCN(c4cc(Cl)ccn4)CC3)[C@@H](Cc3ccc(Cl)cc3)CN2C)CC1` [compound 83, (2S,5S)-2-(4-chlorobenzyl)-1-(1-(4-chloropyridin-2-yl)piperidin-4-yl)-4-methyl-5-((4-methylpiperazin-1-yl)methyl)piperazine 2,2,2-trifluoroacetate] displayed an IC50 of under 100 nM. `CN1C[C@H](Cc2ccc(Cl)cc2)N(C2CCN(c3cc(Cl)ccn3)CC2)C[C@@H]1COc1ccc2ccccc2c1` [compound 84, (2S,5R)-2-(4-chlorobenzyl)-1-(1-(4-chloropyridin-2-yl)piperidin-4-yl)-4-methyl-5-((naphthalen-2-yloxy)methyl)piperazine 2,2,2-trifluoroacetate]: the IC50 is over 100000 nM. The same measure for `C[C@H]1CN(C2CCN(c3ccccn3)C(=O)C2)[C@@H](Cc2ccc(Cl)cc2)CO1` (stereo partly drawn) [compound 85, 4-((2S,5S)-5-(4-chlorobenzyl)-2-methylmorpholino)-1-(pyridin-2-yl)piperidin-2-one 2,2,2-trifluoroacetate]: 10000 to 100000 nM; for `Clc1ccc(C[C@H]2COCCN2C2CCN(c3ccccn3)CC2)cc1` [compound 88, (S)-3-(4-chlorobenzyl)-4-(1-(pyridin-2-yl)piperidin-4-yl)morpholine 2,2,2-trifluoroacetate]: 100 to 1000 nM; for `COC1(C)CCN(C2CCN(c3ccccn3)CC2)[C@@H](Cc2ccc(Cl)cc2)C1` (stereo partly drawn) [compound 91, (2S)-2-(4-chlorobenzyl)-4-methoxy-4-methyl-1′-(pyridin-2-yl)-1,4′-bipiperidine 2,2,2-trifluoroacetate]: under 100 nM. The same measure for `CC1(O)CCN(C2CCN(c3ccccn3)CC2)[C@@H](Cc2ccc(Cl)cc2)C1` (stereo partly drawn) [compound 92, (2S)-2-(4-chlorobenzyl)-4-methyl-1′-(pyridin-2-yl)-[1,4′-bipiperidin]-4-ol 2,2,2-trifluoroacetate]: under 100 nM. Next, `CC[C@H]1CN(C2CCN(c3ccccn3)CC2)[C@@H](Cc2ccc(Cl)cc2)CN1C` [compound 93, (2S,5S)-2-(4-chlorobenzyl)-5-ethyl-4-methyl-1-(1-(pyridin-2-yl)piperidin-4-yl)piperazine 2,2,2-trifluoroacetate]: 10000 to 100000 nM. In turn, `CC[C@H]1CN(C2CCN(c3ccccn3)CC2)[C@@H](Cc2ccc(Cl)cc2)CN1CC(C)C` [compound 94, (2S,5S)-2-(4-chlorobenzyl)-5-ethyl-4-isobutyl-1-(1-(pyridin-2-yl)piperidin-4-yl)piperazine 2,2,2-trifluoroacetate] gave an IC50 of 1000 to 10000 nM. The same measure for `COC(C)(C)CN1C[C@H](Cc2ccc(Cl)cc2)N(C2CCN(c3ccccn3)CC2)C[C@@H]1CC(C)C` [compound 100, (2S,5S)-2-(4-chlorobenzyl)-5-isobutyl-4-(2-methoxy-2-methylpropyl)-1-(1-(pyridin-2-yl)piperidin-4-yl)piperazine 2,2,2-trifluoroacetate]: 1000 to 10000 nM; for `C[C@H]1CN(C2CCN(c3ccccn3)CC2)[C@@H](Cc2ccc(Cl)cc2)CN1CC(=O)N(C)C` [compound 101, 2-((2S,5S)-5-(4-chlorobenzyl)-2-methyl-4-(1-(pyridin-2-yl)piperidin-4-yl)piperazin-1-yl)-N,N-dimethylacetamide]: 100 to 1000 nM.

`C[C@@H](O)CN1C[C@H](Cc2ccc(Cl)cc2)N(C2CCN(c3ccccn3)CC2)C[C@@H]1C` [compound 102, (R)-1-((2S,5S)-5-(4-chlorobenzyl)-2-methyl-4-(1-(pyridin-2-yl)piperidin-4-yl)piperazin-1-yl)propan-2-ol 2,2,2-trifluoroacetate] gave an IC50 of 100 to 1000 nM. Next, `C[C@H]1CN(C2CCN(c3ccccn3)CC2)[C@@H](Cc2ccc(Cl)cc2)CN1CC(=O)NC1CC1` [compound 103, 2-((2S,5S)-5-(4-chlorobenzyl)-2-methyl-4-(1-(pyridin-2-yl)piperidin-4-yl)piperazin-1-yl)-N-cyclopropylacetamide 2,2,2-trifluoroacetate]: 100 to 1000 nM.
